From patent US7183320B2, “Benzoylsulfonamides and sulfonylbenzamidines for use as antitumour agents” (Eli Lilly and Company, priority 2002, dated 2007)

Key:
[1] = system: VEGF-induced neoangiogenesis; assay: Rat corneal micropocket assay, VEGF disks; format: in vivo; conditions: 160 mg/kg orally by gavage once per day, days 1 through 10; Fisher 344 female rats
Description: Rat Corneal Micropocket Assay
Fisher 344 female rats (145–155 grams; Taconic, Inc., Germantown, N.Y.) were anesthesized with acepromazine (2.5 mg/kg, ip) 20 minutes prior to initiation of 2–3% isoflurane/oxygen inhalation. The body temperature was maintained with a circulating hot water pad. The surgery was performed using an ophthalmic operating microscope (OMS.75 Operating Microscope, TopCon Corporation, Japan). A scalpel blade (#15) was used to make a vertical half-thickness linear corneal incision just lateral to the center of the eye. […] A pocket was formed in the cornea using blunt dissection with corneal scissors (Roboz, Rockville, Md.). Nitrocellulose filters ([…], Millipore, Bedford, Mass.) were cut into small disks using a 20 gauge needle punch. The disks were soaked in 2 μl of human VEGF solution ([…]; R&D Systems) or human basic fibroblast growth factor (0.20 μg/μl; R&D Systems) for 10 minutes on ice. Using forceps, the disks impregnated with the angiogenic factor (VEGF or bFGF) were inserted into the corneal pocket so that the disk is firmly covered with corneal epithelium. […] The images were analyzed by converting the area of interest to high contrast black and white reversed image and counting the bright pixels as a determination of the vascular area. […]

[2] = system: MURINE MAMMARY ADENOCARCINOMA-16/C; assay: Early stage murine mammary adenocarcinoma-16/C (Table III); format: in vivo; conditions: C3H female mice
From the text: Conventional Murine Tumor and Human Tumor Xenouraft Assays
Briefly, the murine tumor or human xenograph was implanted subcutaneously using either 12-gauge trocar implants or counted number of cells. The location for the trocar insertion is midway between the axillary and inguinal region along the side of the mouse. The trocar is slipped approximately ¾ of an inch subcutaneously up toward the axilla before discharging the tumor fragment, and pinching the skin as the trocar is removed., Alternatively, human tumor cells prepared from a […] of donor tumors (5×10^6 cells) were implanted subcutaneously in a hind-leg of a male or female nude mouse (Charles River). Either a test compound in vehicle or vehicle alone was administered by intravenous bolus injection (iv), intraperitoneal injection (ip), or oral gavage (po). Each treatment group, as well as a group of untreated control animals, consisted of five animals per group in each experiment. […] Body weights were taken as a general measure of toxicity. The subcutaneous tumor data were analyzed by determining the median tumor weight for each treatment group over the course of the experiment and calculating the tumor growth delay as the difference in days for the treatment versus the control tumors to reach a volume of either 500 or 1000 mm^3.
The parameters measured in each experiment are summarized in the following paragraphs. • Tumor Weight(mg)=(a×b^2)/2 where a=tumor length (mm) and b=tumor width (mm). • Tumor Growth Delay=T−C where T is the median time (days) required for the treatment group tumors to reach a predetermined size, and C is the median time (days) for the control group tumors to reach the same size. Tumor-free survivors are excluded from this calculation, and are tabulated separately (Tumor Free).
The median tumor weight of each group is determined (including zeros). The T/C value in percent is an indication of antitumor effectiveness.

[3] = total dose 560 mg/kg by IV infusion over 3 hours on day 3
[4] = total dose 560 mg/kg: 280 mg/kg by IV infusion on days 3 and 7
[5] = total dose 680 mg/kg IV: 80 mg/kg/injection days 3–6, 120 mg/kg/injection days 7–9

Question: What does the source list for `O=C(NS(=O)(=O)c1ccccc1)c1ccc(Cl)cc1Cl` [Example 110, N-[2,4-dichlorobenzoyl]phenylsulfonamide]?
Answer: inhibition of VEGF-induced neoangiogenesis [1]: very effective inhibitor; % BODY WT LOSS AT NADIR [2, 3]: DEATH; ACTIVITY RATING [2, 3]: DEATH; DRUG DEATHS [2, 3]: 5/5; GROWTH DELAY (DAYS) [2, 3]: DEATH; TUMOR FREE AT DAY 14 [2, 3]: 0/5; % BODY WT LOSS AT NADIR [2, 4]: +10.9%; % T/C MASS [2, 4]: 37%; ACTIVITY RATING [2, 4]: + (0.7–1.2); DRUG DEATHS [2, 4]: 0/4; GROWTH DELAY [2, 4]: 2.0 days; LOG KILL [2, 4]: 0.6; TUMOR FREE AT DAY 14 [2, 4]: 0/4; % BODY WT LOSS AT NADIR [2, 5]: +7.6%; % T/C MASS [2, 5]: 39%; ACTIVITY RATING [2, 5]: + (0.7–1.2); DRUG DEATHS [2, 5]: 0/5; GROWTH DELAY [2, 5]: 2.5 days; LOG KILL [2, 5]: 0.75; TUMOR FREE AT DAY 14 [2, 5]: 0/5
